Assay: xn = mol fraction of the nth substance listed
Conditions: 101 kPa, Liquid; for speed of sound: Pulse-echo method; for mass density: Vibrating tube method

CNc1ccccc1 [N-methylaniline] + CCC(C)=O
Conditions	mass density [kg/m3]	speed of sound [m/s]
293.15 K, x2 = 0.0627	977.942	1562.9
293.15 K, x2 = 0.1133	970.977	1546.9
293.15 K, x2 = 0.1564	964.888	1532.9
293.15 K, x2 = 0.2058	957.75	1517
293.15 K, x2 = 0.2538	950.572	1501
293.15 K, x2 = 0.3018	943.182	1484.8
293.15 K, x2 = 0.3464	936.057	1469.4
293.15 K, x2 = 0.3938	928.444	1453
293.15 K, x2 = 0.4435	920.205	1435.6
293.15 K, x2 = 0.4907	912.022	1418.5
293.15 K, x2 = 0.5508	901.21	1396.2
293.15 K, x2 = 0.5959	892.779	1378.9
293.15 K, x2 = 0.6529	881.753	1356.6
293.15 K, x2 = 0.7489	862.241	1318.2
293.15 K, x2 = 0.7938	852.894	1300
293.15 K, x2 = 0.8492	840.63	1277
293.15 K, x2 = 0.8981	829.68	1256.7
293.15 K, x2 = 0.9525	816.716	1232.9
298.15 K, x2 = 0.076	972.066	1540.1
298.15 K, x2 = 0.1115	967.149	1528.8
298.15 K, x2 = 0.1566	960.718	1514.2
298.15 K, x2 = 0.2076	953.334	1497.6
298.15 K, x2 = 0.2589	945.633	1480.6
298.15 K, x2 = 0.2967	939.765	1467.7
298.15 K, x2 = 0.3471	931.809	1450.5
298.15 K, x2 = 0.3973	923.563	1432.8
298.15 K, x2 = 0.4477	915.055	1414.8
298.15 K, x2 = 0.495	906.694	1397.2
298.15 K, x2 = 0.5471	897.284	1377.8
298.15 K, x2 = 0.5992	887.579	1357.9
298.15 K, x2 = 0.6921	869.471	1321.7
298.15 K, x2 = 0.7463	858.202	1299.5
298.15 K, x2 = 0.8007	846.555	1277
298.15 K, x2 = 0.847	836.277	1257.5
298.15 K, x2 = 0.8993	824.346	1235.1
298.15 K, x2 = 0.9472	813	1214.5
303.15 K, x2 = 0.0641	969.669	1526
303.15 K, x2 = 0.1123	962.964	1510.7
303.15 K, x2 = 0.1581	956.434	1495.9
303.15 K, x2 = 0.2036	949.789	1481.1
303.15 K, x2 = 0.2591	941.381	1462.5
303.15 K, x2 = 0.3061	934.049	1446.5
303.15 K, x2 = 0.3513	926.789	1430.8
303.15 K, x2 = 0.4022	918.424	1412.9
303.15 K, x2 = 0.4472	910.653	1396.5
303.15 K, x2 = 0.5025	900.926	1376.1
303.15 K, x2 = 0.5536	891.605	1356.9
303.15 K, x2 = 0.5984	883.203	1339.7
303.15 K, x2 = 0.6489	873.485	1320.1
303.15 K, x2 = 0.6969	863.705	1300.7
303.15 K, x2 = 0.7543	851.719	1277.1
303.15 K, x2 = 0.8047	840.797	1256
303.15 K, x2 = 0.8497	830.818	1237.1
303.15 K, x2 = 0.8965	819.999	1216.8
303.15 K, x2 = 0.9524	806.615	1192.2

Nc1ccccc1 [aniline] + CCC(C)=O
Conditions	mass density [kg/m3]	speed of sound [m/s]
293.15 K, x2 = 0.058	1011.29	1633.7
293.15 K, x2 = 0.1122	1001.34	1612.2
293.15 K, x2 = 0.1576	993.678	1594.7
293.15 K, x2 = 0.2052	985.068	1576
293.15 K, x2 = 0.2543	976.056	1556.7
293.15 K, x2 = 0.3043	966.42	1536.6
293.15 K, x2 = 0.3562	956.208	1515.5
293.15 K, x2 = 0.4059	946.279	1495.2
293.15 K, x2 = 0.453	936.5	1475.2
293.15 K, x2 = 0.5048	925.617	1453.2
293.15 K, x2 = 0.5443	917.103	1435.8
293.15 K, x2 = 0.612	902.143	1405.4
293.15 K, x2 = 0.648	894.022	1389
293.15 K, x2 = 0.7044	880.787	1362.1
293.15 K, x2 = 0.7754	863.737	1328.6
293.15 K, x2 = 0.8081	855.598	1311.3
293.15 K, x2 = 0.8493	845.213	1290.5
293.15 K, x2 = 0.9027	831.249	1262.9
293.15 K, x2 = 0.9476	819.373	1239.6
298.15 K, x2 = 0.056	1007.34	1615.4
298.15 K, x2 = 0.1188	997.647	1593.6
298.15 K, x2 = 0.1547	990.216	1576.9
298.15 K, x2 = 0.2038	981.189	1557.5
298.15 K, x2 = 0.2563	971.23	1536.5
298.15 K, x2 = 0.3064	961.559	1516.3
298.15 K, x2 = 0.3474	953.414	1499.6
298.15 K, x2 = 0.4089	940.989	1474.1
298.15 K, x2 = 0.4523	932.032	1455.8
298.15 K, x2 = 0.5026	921.385	1434.1
298.15 K, x2 = 0.5467	911.916	1414.9
298.15 K, x2 = 0.6019	899.666	1390
298.15 K, x2 = 0.6481	889.131	1368.5
298.15 K, x2 = 0.7048	875.989	1341.9
298.15 K, x2 = 0.7451	866.153	1322
298.15 K, x2 = 0.803	851.853	1293.2
298.15 K, x2 = 0.8487	840.349	1270.1
298.15 K, x2 = 0.9019	826.554	1242.8
298.15 K, x2 = 0.9489	813.934	1218
303.15 K, x2 = 0.0582	1002.61	1596.1
303.15 K, x2 = 0.1097	993.104	1575.6
303.15 K, x2 = 0.1485	986.049	1560.3
303.15 K, x2 = 0.205	975.667	1538
303.15 K, x2 = 0.2507	967.388	1520.3
303.15 K, x2 = 0.3064	956.964	1497.9
303.15 K, x2 = 0.3426	949.873	1483
303.15 K, x2 = 0.414	935.434	1453.3
303.15 K, x2 = 0.447	928.634	1439.5
303.15 K, x2 = 0.491	919.218	1420.3
303.15 K, x2 = 0.5537	905.656	1392.7
303.15 K, x2 = 0.6044	894.417	1369.8
303.15 K, x2 = 0.6434	885.415	1351.5
303.15 K, x2 = 0.7038	871.181	1322.6
303.15 K, x2 = 0.7716	854.721	1289.4
303.15 K, x2 = 0.8079	845.614	1271.1
303.15 K, x2 = 0.8481	835.388	1250.6
303.15 K, x2 = 0.8988	822.096	1224.2
303.15 K, x2 = 0.9466	809.221	1199

— the NIST ThermoML archive (doi:10.1021/je100472t)
